Test results published in paper PMC11089505, “Structural Elucidation and Antiviral Activity of Covalent Cathepsin L Inhibitors” (Journal of Medicinal Chemistry, 2024).
Several values for one entry are separate records, joined by “and”; a condition that tells them apart may be missing. Identical values can stand only once. Like-named read-outs stand apart in the source and are kept apart here. Square brackets hold non-standard residues; d marks the D form. Peptide text beside a SMILES is read from it. Nle = CCCC[C@H](N)C(=O)O

Experiments:
[1] = biological target: CatL; settings: cited from earlier work
[2] = biological target: T1, CatL (Homo sapiens, UniProt P07711, T223A); assay: NanoDSF, thermal stability of CatL; assay type: binding; settings: for 2:1, Tm average (CatL): 2:1 compound to protein; for 20:1, Tm average (CatL): 20:1 compound to protein
T1 construct: made in house; host or cells: Komagataella pastoris strain GS115

[3] = in vitro; settings: African green monkey
[4] = biological target: T1, CatL; assay: CatL inactivation assay comparing epoxides at pH 6 and pH 4; assay type: biochemical
Experimental: (§1) Experiments were performed in a solution of 50 mM sodium acetate, pH 4.0, 50 mM NaCl, 0.1% PEG 6000, and 5 mM DTT. Distinct assays with epoxide inhibitors at pH 6.0 were performed in 50 mM sodium phosphate buffer, 50 mM NaCl, 5 mM DTT, 0.1% PEG 6000, adjusted to pH 6.0.
(§2) M1000 pro plate reader (Tecan), the fluorescent peptide substrate Z-RR-AMC, and excitation and emission wavelengths of 370 and 460 nm, respectively.
(§3) At first, the inhibitor concentration span was optimized for each inhibitor and the assay buffer. For this initial screening, CatL (5 nM) was mixed with different concentrations of inhibitors (1 nM–50 μM) to determine the range of their inhibition. […] Reaction data were fitted to the […] in GraphPad Prism 9 software: Y = bottom + (top – bottom)/(1 + 10^∧((log IC50 – X) × HillSlope)); X is the log of dose or concentration, Y is the response (fluorescence signal), decreasing as X increases, top and bottom are the plateaus in the same units as Y, log IC50 same log units as X, HillSlope is the slope factor or called the Hill slope.
Figure S7. Inactivation of CatL.
(1 picture or pasted object on this page, not shown here)

[5] = biological target: SARS-CoV-2 Mpro (Severe acute respiratory syndrome coronavirus 2, UniProt P0DTD1); assay type: binding; settings: for 2:1, Tm average (Mpro): 2:1 compound to protein
[6] = biological target: T1, CatL; assay: CatL inhibition assay (Ki), substrate Z-RR-AMC; assay type: biochemical
Experimental: as §1, §2, §3

[7] = tested on: SARS-CoV-2-GFP in Vero E6 cells; assay: microbe, parasite or virus in culture; assay type: cell-based
[8] = read-out: Ki of CatL inhibition

T1 sequence (P07711 114-333 T223A): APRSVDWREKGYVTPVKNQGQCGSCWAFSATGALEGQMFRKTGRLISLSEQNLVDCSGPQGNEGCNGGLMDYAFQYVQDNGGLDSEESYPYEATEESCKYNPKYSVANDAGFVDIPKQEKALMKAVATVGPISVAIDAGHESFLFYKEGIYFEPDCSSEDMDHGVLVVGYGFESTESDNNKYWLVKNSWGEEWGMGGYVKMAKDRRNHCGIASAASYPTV

Compound: CCCC[C@@H](C=O)NC(=O)[C@H](CC(C)C)NC(=O)OCc1ccccc1 [Calpeptin]
- Ki [1, 8]: 0.13 nM
- 2:1, Tm average (CatL) [2]: 81.8 °C
- 20:1, Tm average (CatL) [2]: 82 °C
- viability at 48 h, 1e-05 µM [3]: 100%
- viability at 48 h, 0.0001 µM [3]: 98.4%
- viability at 48 h, 0.001 µM [3]: 99.3%
- viability at 48 h, 0.01 µM [3]: 97.9%
- viability at 48 h, 0.1 µM [3]: 101%
- viability at 48 h, 1 µM [3]: 101%
- viability at 48 h, 10 µM [3]: 105%

Compound: CC(C)C[C@H](NC(=O)[C@H]1O[C@@H]1C(=O)O)C(=O)NCCCCN=C(N)N [E-64, 3-[[[(1S)-1-[[[4-[(Aminoiminomethyl)amino]butyl]amino]carbonyl]-3-methylbutyl]amino]carbonyl]-(2S.3S)-oxiranecarboxylic acid]
- Inactivation Rate ([4]; E-64, pH 4, 19.76 nM): 0.0008123 per second and 0.00102 per second
- Inactivation Rate ([4]; E-64, pH 4, 29.64 nM): 0.001302 per second and 0.001598 per second
- Inactivation Rate ([4]; E-64, pH 4, 44.45 nM): 0.002006 per second and 0.002388 per second
- Inactivation Rate ([4]; E-64, pH 4, 66.68 nM): 0.003192 per second and 0.003338 per second
- Inactivation Rate ([4]; E-64, pH 4, 100.01 nM): 0.004626 per second and 0.004922 per second
- Inactivation Rate ([4]; E-64, pH 4, 225.00 nM): 0.01185 per second and 0.01036 per second
- Inactivation Rate ([4]; E-64, pH 6, 19.76 nM): 0.0005258 per second and 0.000578 per second
- Inactivation Rate ([4]; E-64, pH 6, 29.64 nM): 0.0007668 per second and 0.0008131 per second
- Inactivation Rate ([4]; E-64, pH 6, 44.45 nM): 0.001154 per second and 0.001247 per second
- Inactivation Rate ([4]; E-64, pH 6, 66.68 nM): 0.001742 per second and 0.001837 per second
- Inactivation Rate ([4]; E-64, pH 6, 100.01 nM): 0.002659 per second and 0.002717 per second
- Inactivation Rate ([4]; E-64, pH 6, 225.00 nM): 0.006042 per second and 0.006005 per second
- ΔTm [K] for CatL, 2:1 ratio [2]: 4.1 ± 0.4 K
- 2:1, Tm average (CatL) [2]: 67.2 °C
- 20:1, Tm average (CatL) [2]: 76.9 °C
- ΔTm (for CatL), 2:1 compound to protein mixing ratio ([2]; pH 5): 4,1 ± 0,4 °C and 4.1 °C
- ΔTm (for CatL), 20:1 compound to protein mixing ratio ([2]; pH 5): 13,8 ± 0,1 °C and 13.8 °C
- ΔTm (for Mpro), 2:1 compound to protein mixing ratio ([5]; 8 µM Mpro, pH 7.5, 2% DMSO, 2:1): -1,0 ± 0,2 °C and -1 °C
- 2:1, Tm average (Mpro) [5]: 54.4 °C

Compound: CC(C)C[C@H](NC(=O)OCc1ccccc1)C(=O)N[C@@H](CC1CCNC1=O)C(O)S(=O)(=O)O (some centres unmarked) [GC-376]
- Ki [1, 8]: 0.26 nM

Compound: CCCC[C@@H](C=O)NC(=O)[C@H](CC(C)C)NC(=O)[C@H](CC(C)C)NC(C)=O [MG101] (Ac-Leu-Leu-[Nle]-aldehyde)
- viability at 48 h, 1e-05 µM [3]: 103%
- viability at 48 h, 0.0001 µM [3]: 102%
- viability at 48 h, 0.001 µM [3]: 102%
- viability at 48 h, 0.01 µM [3]: 102%
- viability at 48 h, 0.1 µM [3]: 102%
- viability at 48 h, 1 µM [3]: 101%
- viability at 48 h, 10 µM [3]: 63%

Compound: CCCC[C@@H](C=O)NC(=O)[C@H](CC(C)C)NC(=O)[C@H](CC(C)C)NC(C)=O [MG-101, Acetyl-Leu-Leu-Nle-aldehyde] (Ac-Leu-Leu-[Nle]-aldehyde)
- Ki ([1]; read-out: Ki): 0.5 nM
- Ki ([6]; read-out: Ki): 0.064 nM and 0.0645 nM
- remaining activity at 69 pM ([6]; read-out: Residual activity (Vi/V0), MG-101 0.069 nM): 91.8%
- remaining activity at 99 pM ([6]; read-out: Residual activity (Vi/V0), MG-101 0.099 nM): 86.4%
- remaining activity at 0.000141 µM ([6]; read-out: Residual activity (Vi/V0), MG-101 0.141 nM): 80.3%
- remaining activity at 0.000202 µM ([6]; read-out: Residual activity (Vi/V0), MG-101 0.202 nM): 78.5%
- remaining activity at 0.000288 µM ([6]; read-out: Residual activity (Vi/V0), MG-101 0.288 nM): 70.1%
- remaining activity at 0.000412 µM ([6]; read-out: Residual activity (Vi/V0), MG-101 0.412 nM): 58.3%
- remaining activity at 0.000588 µM ([6]; read-out: Residual activity (Vi/V0), MG-101 0.588 nM): 43.3%
- EC50 ([7]; Severe acute respiratory syndrome coronavirus 2, Vero C1008, 24 h, read-out: EC50 (after 24 h)): 4.39 nM
- EC50 ([7]; Severe acute respiratory syndrome coronavirus 2, Vero C1008, 48 h, read-out: EC50 (48 h)): < 500 nM
- EC50 ([7]; Severe acute respiratory syndrome coronavirus 2, Vero C1008, 48 h, read-out: EC50 (after 48 h)): 198 nM
- 2:1, Tm average (Mpro) [5]: 60.4 °C
